Assay [1] concerns E. Coli. The note with it: previously disclosed (Shechter et al., 2002; Marcus et al., 2008); read-out: IC50, inhibition of E. Coli replication; cited from earlier work.
In assay [2] the target is human serum albumin (HSA) (Homo sapiens, UniProt P02768). Nature of the assay: Isothermal scanning calorimetry (ITC) of ligand association with HSA. The assay is classed as binding. The note with it: for Kd: ligand 400 μM injected into HSA 10 μM, PBS pH 7.4, 23° C., read-out: Association-constant to HSA K (Ka) (converted).
Protocol: The data was obtained for 15 automatic injections each of 2.7 The total duration of the experiments was 45 min (2A). […] Sample cell contained HSA at a concentration of 10 μM. Both components were dissolved in PBS-buffer pH=7.4. The experiment was conducted at 23° C.
(iv) Isothermal scanning calorimetry measurements were performed with iTC200 microcalorimeter (MicroCal LLC, Nothampton Mass., USA), according to the manufacturer's instructions.
For assay [3] the following is noted: background statement; cited from earlier work.
In assay [4] the target is HSA (Homo sapiens, UniProt P02768). The note with it: immobilized HSA binding strategy, Markusen et al., 1996; cited from earlier work.
Assay [5] relates to CD1-mice. The note with it: at any dosage, previously described; cited from earlier work.

human serum albumin (HSA), sequence (P02768 25-609): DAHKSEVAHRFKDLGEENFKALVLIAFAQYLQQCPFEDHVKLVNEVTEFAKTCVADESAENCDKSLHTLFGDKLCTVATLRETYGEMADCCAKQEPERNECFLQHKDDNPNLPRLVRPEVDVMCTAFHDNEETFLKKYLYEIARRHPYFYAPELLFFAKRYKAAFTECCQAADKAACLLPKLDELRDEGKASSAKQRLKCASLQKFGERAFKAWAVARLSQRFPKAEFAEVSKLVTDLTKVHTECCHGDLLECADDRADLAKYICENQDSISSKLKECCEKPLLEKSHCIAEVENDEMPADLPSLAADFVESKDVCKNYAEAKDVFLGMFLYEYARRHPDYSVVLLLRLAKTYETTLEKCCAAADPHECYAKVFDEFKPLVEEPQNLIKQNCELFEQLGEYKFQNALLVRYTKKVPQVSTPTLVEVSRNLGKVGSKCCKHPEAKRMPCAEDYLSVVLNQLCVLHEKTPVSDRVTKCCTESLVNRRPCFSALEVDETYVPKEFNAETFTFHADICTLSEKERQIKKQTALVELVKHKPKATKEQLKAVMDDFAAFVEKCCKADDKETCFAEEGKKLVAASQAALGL
HSA, sequence (P02768 25-609): as above

By IC50 is commonly meant the concentration that gives 50% inhibition. Consider Gentamicin, for which the IC50 in assay [1] is 2.1 ± 0.2 µM.
For `O=C(O)CCCCCCCCCCCCCCCSC1CC(=O)NC1=O` (stereo not shown) [MAL-S—(CH2)15—COOH, 16-(2,5-dioxopyrrolidin-3-ylthio)hexadecanoic acid], the Kd in assay [2] is 6.45 µM.
Turning to `O=C(O)CCCCCCCCCCSC1CC(=O)NC1=O` (stereo not shown), the Kd in assay [2] was 7.69 µM.
“N^εB29-tetradecanoyl des(B30) insulin [insulin-detemir]”: the duration of action entry in assay [3] is on record as “up to 24 hours”. Also, in assay [2] (PBS pH 7.4), the “N (binding sites, OneSites model)” value is 0.693±0.0430 sites; the “ΔH of binding to HSA” value was -4.575 ± 0.4067 kcal/mol; the “ΔS of binding to HSA” value is on record as 6.79 (cal/mol)/deg. For the same molecule, in assay [4], the “Ka, binding affinity to HSA” value was 2.4±0.7×10^5 M^−1.
As for exendin-4, the “threshold decrease of circulating blood glucose level” value in assay [5] is recorded as 27±3%.
On to `O=C(O)CNC(=O)OCC1c2cc(NC(=O)CCN3C(=O)C=CC3=O)ccc2-c2ccc(S(=O)(=O)O)cc21` (stereo not shown) [Glycine-FMS-MAL, 2-(((2-(3-(2,5-dioxo-2,5-dihydro-1H-pyrrol-1-yl)propanamido)-7-sulfo-9H-fluoren-9-yl)methoxy)carbonylamino)acetic acid], for which the Kd in assay [2] was 7.14 µM.
